# Structures can show the parent of a compound that is named as a salt.
# Molecular target: T1, cPLA2 crudely purified from the cytoplasm fraction of U937 (Homo sapiens, UniProt P47712)
# T1 construct: cPLA2 crudely purified from the cytoplasm fraction of U937; endogenous in cells; host or cells: U937 cells (cytoplasm fraction, crude purification)
# T1 sequence (P47712 1-749): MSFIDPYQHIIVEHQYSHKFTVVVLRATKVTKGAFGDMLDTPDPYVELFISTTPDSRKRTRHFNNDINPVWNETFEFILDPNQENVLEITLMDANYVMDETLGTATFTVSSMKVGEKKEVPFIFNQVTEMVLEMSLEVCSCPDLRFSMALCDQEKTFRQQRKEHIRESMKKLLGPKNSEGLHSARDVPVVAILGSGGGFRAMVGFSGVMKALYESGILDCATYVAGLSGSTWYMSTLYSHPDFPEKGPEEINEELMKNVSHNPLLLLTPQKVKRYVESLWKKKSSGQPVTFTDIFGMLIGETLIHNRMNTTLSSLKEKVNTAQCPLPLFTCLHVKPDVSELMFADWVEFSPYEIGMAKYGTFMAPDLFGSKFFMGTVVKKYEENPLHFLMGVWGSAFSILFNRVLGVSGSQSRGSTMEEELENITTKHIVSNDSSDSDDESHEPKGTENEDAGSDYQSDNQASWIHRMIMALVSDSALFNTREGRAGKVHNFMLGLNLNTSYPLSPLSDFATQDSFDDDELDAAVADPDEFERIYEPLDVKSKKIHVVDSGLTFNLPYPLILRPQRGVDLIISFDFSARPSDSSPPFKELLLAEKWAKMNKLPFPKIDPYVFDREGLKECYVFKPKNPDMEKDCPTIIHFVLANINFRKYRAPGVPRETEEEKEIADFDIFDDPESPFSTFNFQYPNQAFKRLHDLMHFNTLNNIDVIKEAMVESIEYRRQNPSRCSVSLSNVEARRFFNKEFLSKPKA
# Assay: Measurement of cPLA2 inhibitory activity (release of [14C]-arachidonic acid from phosphatidyl choline liposome)
# Assay type: biochemical
# Details: cPLA2 from U937 cytoplasm fraction, [14C]arachidonyl-phosphatidyl choline liposome, 37° C., 60 minutes; read-out: cPLA2 inhibitory activity, 50% inhibiting concentration IC50
# In short: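 The read-out is radioactivity from extracted [14C]-arachidonic acid, freed over 60 min at 37° C from liposomes of 14C-arachidonyl phosphatidylcholine (10 μM PC in the added solution). Buffer was 50 mM HEPES pH 7.5 with Ca2+, DTT, NaCl and BSA. IC50 was derived from inhibition relative to enzyme control minus no-enzyme control.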
row,IC50 [nM],Structure (SMILES)
1,1440,"O=C(O)/C=C/c1ccc2c(c1)c(CCc1ccccn1)cn2-c1ccccc1 [Example 263, (2E)-3-[1-phenyl-3-(2-pyridin-2-ylethyl)-1H-indol-5-yl]-2-propenoic acid]"
2,338,"O=C(O)CCc1ccc2c(c1)c(CCc1ccccn1)cn2-c1ccccc1 [Example 264, 3-[1-phenyl-3-(2-pyridin-2-ylethyl)-1H-indol-5-yl]propanoic acid]"
3,110,"O=C(O)/C=C/c1ccc2c(c1)c(CCc1ccccn1)cn2-c1ccc(OCc2ccccc2)cc1 [Example 267, (2E)-3-{1-[4-(benzyloxy)phenyl]-3-(2-pyridin-2-ylethyl)-1H-indol-5-yl}-2-propenoic acid]"
4,19,"O=C(O)CCc1ccc2c(c1)c(CCc1ccccn1)cn2-c1ccc(OCc2ccccc2)cc1 [Example 268, 3-{1-[4-(benzyloxy)phenyl]-3-(2-pyridin-2-ylethyl)-1H-indol-5-yl}propanoic acid]"
5,77,"O=C(O)CCc1ccc2c(c1)c(CCc1ccccn1)cn2-c1ccc(O)cc1 [Example 269, 3-[1-(4-hydroxyphenyl)-3-(2-pyridin-2-ylethyl)-1H-indol-5-yl]propanoic acid hydrochloride]"
6,357,"O=C(O)/C=C/c1ccc2c(c1)c(CCc1ccccn1)cn2-c1ccc(O)cc1 [Example 271, (2E)-3-[1-(4-hydroxyphenyl)-3-(2-pyridin-2-ylethyl)-1H-indol-5-yl]-2-propenoic acid]"
7,12,"O=C(O)CCc1ccc2c(c1)c(CCc1ccccn1)cn2-c1ccc(Oc2ccccc2)cc1 [Example 275, 3-[1-(4-phenoxyphenyl)-3-(2-pyridin-2-ylethyl)-1H-indol-5-yl]propanoic acid hydrochloride]"
8,98,"O=C(O)CCc1ccc2c(c1)c(CCc1ccccn1)cn2-c1ccc(OC(F)F)cc1 [Example 277, 3-{1-[4-(difluoromethoxy)phenyl]-3-(2-pyridin-2-ylethyl)-1H-indol-5-yl}propanoic acid hydrochloride]"
9,245,"O=C(O)CCc1ccc2c(c1)c(CCc1ccccn1)cn2-c1ccc(OCCO)cc1 [Example 279, 3-{1-[4-(2-hydroxyethoxy)phenyl]-3-(2-pyridin-2-ylethyl)-1H-indol-5-yl}propanoic acid hydrochloride]"
10,278,"O=C(O)CCc1ccc2c(c1)c(CCc1ccccn1)cn2-c1cccc(OCc2ccccc2)c1 [Example 281, 3-{1-[3-(benzyloxy)phenyl]-3-(2-pyridin-2-ylethyl)-1H-indol-5-yl}propanoic acid hydrochloride]"
11,582,"O=C(O)CCc1ccc2c(c1)c(CCc1ccccn1)cn2-c1cccc(O)c1 [Example 282, 3-[1-(3-hydroxyphenyl)-3-(2-pyridin-2-ylethyl)-1H-indol-5-yl]propanoic acid hydrochloride]"
12,> 3000,"O=C(CCc1ccc2c(c1)c(CCc1ccccc1)cn2-c1ccc(O)cc1)NO [Example 284, N-hydroxy-3-[1-(4-hydroxyphenyl)-3-(2-phenylethyl)-1H-indol-5-yl]propanamide]"
13,> 3000,"O=C(CCc1ccc2c(c1)c(CCc1ccccc1)cn2-c1ccc(OC(F)F)cc1)NO [Example 286, 3-{1-[4-(difluoromethoxy)phenyl]-3-(2-phenylethyl)-1H-indol-5-yl}-N-hydroxypropanamide]"
14,264,"O=C(O)CCc1ccc2c(c1)c(CCc1ccccc1)cn2-c1cc(F)c(OCc2ccccc2)c(F)c1 [Example 288, 3-{1-[4-(benzyloxy)-3,5-difluorophenyl]-3-(2-phenylethyl)-1H-indol-5-yl}propanoic acid 2-amino-2-(hydroxymethyl)propane-1,3-diol salt (1:1)]"
15,182,"O=C(O)CCc1ccc2c(c1)c(CCc1ccccc1)cn2-c1cc(F)c(O)c(F)c1 [Example 289, 3-[1-(3,5-difluoro-4-hydroxyphenyl)-3-(2-phenylethyl)-1H-indol-5-yl]propanoic acid]"
16,83,"O=C(O)CCc1ccc2c(c1)c(CCc1ccccc1)cn2-c1ccc(COc2ccc(F)cc2)cc1 [Example 291, 3-[1-{4-[(4-fluorophenoxy)methyl]phenyl}-3-(2-phenylethyl)-1H-indol-5-yl]propanoic acid 2-amino-2-(hydroxymethyl)propane-1,3-diol salt (1:1)]"

row,IC50 [nM],Structure (SMILES)
1,191,"O=C(O)CCc1ccc2c(c1)c(CCc1ccccc1)cn2-c1ccc(COC(F)F)cc1 [Example 293, 3-[1-{4-[(difluoromethoxy)methyl]phenyl}-3-(2-phenylethyl)-1H-indol-5-yl]propanoic acid]"
2,755,"CC(O)c1ccc(-n2cc(CCc3ccccc3)c3cc(CCC(=O)O)ccc32)cc1 (centres unmarked) [Example 295, 3-{1-[4-(1-hydroxyethyl)phenyl]-3-(2-phenylethyl)-1H-indol-5-yl}propanoic acid 2-amino-2-(hydroxymethyl)propane-1,3-diol salt (1:1)]"
3,442,"O=C(O)CCc1ccc2c(c1)c(CCc1ccccn1)cn2-c1cc(F)c(OCc2ccccc2)c(F)c1 [Example 297, 3-{1-[4-(benzyloxy)-3,5-difluorophenyl]-3-(2-pyridin-2-ylethyl)-1H-indol-5-yl}propanoic acid]"
4,923,"O=C(O)CCc1ccc2c(c1)c(CCc1ccccn1)cn2-c1cc(F)c(O)c(F)c1 [Example 298, 3-[1-(3,5-difluoro-4-hydroxyphenyl)-3-(2-pyridin-2-ylethyl)-1H-indol-5-yl]propanoic acid hydrochloride]"
5,381,"O=C(O)CCc1ccc2c(c1)c(CCc1ccccn1)cn2-c1ccc(COc2ccc(F)cc2)cc1 [Example 300, 3-[1-{4-[(4-fluorophenoxy)methyl]phenyl}-3-(2-pyridin-2-ylethyl)-1H-indol-5-yl]propanoic acid hydrochloride]"
6,764,"O=C(O)CCc1ccc2c(c1)c(CCc1ccccn1)cn2-c1ccc(COC(F)F)cc1 [Example 302, 3-[1-{4-[(difluoromethoxy)methyl]phenyl}-3-(2-pyridin-2-ylethyl)-1H-indol-5-yl]propanoic acid hydrochloride]"
7,> 3000,"CC(O)c1ccc(-n2cc(CCc3ccccn3)c3cc(CCC(=O)O)ccc32)cc1 (centres unmarked) [Example 304, 3-{1-[4-(1-hydroxyethyl)phenyl]-3-(2-pyridin-2-ylethyl)-1H-indol-5-yl}propanoic acid hydrochloride]"
8,871,"O=C(O)CCc1ccc2c(c1)c(CCc1ccccc1)cn2-c1ccc(CN2CCCC2)cc1 [Example 306, 3-{3-(2-phenylethyl)-1-[4-(pyrrolidin-1-ylmethyl)phenyl]-1H-indol-5-yl}propanoic acid]"
9,149,"O=C(O)CCc1ccc2c(c1)c(CCc1ccccc1)cn2-c1ccc(CN2CCOCC2)cc1 [Example 308, 3-{1-[4-(morpholin-4-ylmethyl)phenyl]-3-(2-phenylethyl)-1H-indol-5-yl}propanoic acid]"
10,354,"CN(C)C(=O)c1ccc(-n2cc(CCc3ccccc3)c3cc(CCC(=O)O)ccc32)cc1 [Example 310, 3-[1-{4-[(dimethylamino)carbonyl]phenyl}-3-(2-phenylethyl)-1H-indol-5-yl]propanoic acid]"
11,404,"O=C(O)CCc1ccc2c(c1)c(CCc1ccccc1)cn2-c1ccc(C(=O)N2CCOCC2)cc1 [Example 312, 3-{1-[4-(morpholin-4-ylcarbonyl)phenyl]-3-(2-phenylethyl)-1H-indol-5-yl}propanoic acid]"
12,> 3000,"CN(C)C(=O)c1cccc(-n2cc(CCc3ccccc3)c3cc(CCC(=O)O)ccc32)c1 [Example 314, 3-{1-[3-(dimethylcarbamoyl)phenyl]-3-(2-phenylethyl)-1H-indol-5-yl}propanoic acid]"
13,> 3000,"O=C(O)CCc1ccc2c(c1)c(CCc1ccccc1)cn2-c1cccc(C(=O)N2CCOCC2)c1 [Example 316, 3-{1-[3-(morpholin-4-ylcarbonyl)phenyl]-3-(2-phenylethyl)-1H-indol-5-yl}propanoic acid]"
14,271,"CN(C)S(=O)(=O)c1ccc(-n2cc(CCc3ccccc3)c3cc(CCC(=O)O)ccc32)cc1 [Example 318, 3-[1-{4-[(dimethylamino)sulfonyl]phenyl}-3-(2-phenylethyl)-1H-indol-5-yl]propanoic acid]"
15,258,"O=C(O)CCc1ccc2c(c1)c(CCc1ccccc1)cn2-c1ccc(S(=O)(=O)N2CCOCC2)cc1 [Example 320, 3-{1-[4-(morpholin-4-ylsulfonyl)phenyl]-3-(2-phenylethyl)-1H-indol-5-yl}propanoic acid]"
16,1910,"CN(C)S(=O)(=O)c1cccc(-n2cc(CCc3ccccc3)c3cc(CCC(=O)O)ccc32)c1 [Example 322, 3-[1-{3-[(dimethylamino)sulfonyl]phenyl}-3-(2-phenylethyl)-1H-indol-5-yl]propanoic acid]"
